Source: PMC11904993, “Humanized Candida and NanoBiT Assays Expedite Discovery of Bdf1 Bromodomain Inhibitors With Antifungal Potential” (Advanced Science, 2025)
Values joined by “and” are separate entries in the source; they are usually repeats but may differ in a detail not shown here. Equal values may be shown once. Read-outs that look alike come from different tables or passages of the source.

Key:
[1] = test system: C. glabrata strains (WT, pdr1∆ or PDR1 rescue); test: Growth assays to assess compound efflux; format: cell-based; details: for growth relative to Solvent = 100 (Figure S10B): compound 50 µM, three replicates
Protocol: Cells from a single colony were diluted in 0.85% NaCl before being counted using a Neubauer chamber. […] The effect of fluconazole was tested by titration on these strains under similar conditions.

[2] = test system: HeLa cells; details: highest concentration tested (300 µM); 24 h
Protocol: Cytotoxicity assays were performed as described^[ [1] ^] with minor changes. Proliferation of human cells was assessed using an MTT colorimetric assay (Cell Proliferation Kit I, Roche). HeLa (epithelial cells, ATCC number CCL‐2) and IMR90 (primary fibroblasts cells, ATCC number CCL‐186) cells were cultured in humidified atmosphere (37 °C and 5% CO2) in DMEM medium containing 10% heat inactivated fetal calf serum and 2 mM glutamine. […] Plates were incubated at 37 °C and 5% CO2 for 24 h before adding 10 mL of MTT labelling reagent (final concentration 0.5 mg mL^−1) to each well. After incubating for a further 4 h, 100 µL of the solubilization solution were added in each well. Plates were allowed to stand overnight in the incubator before measuring the absorbance at 570 nm and at 690 nm in a ClarioStar plate reader. The values of A570–A690 nm were normalized relative to that obtained with vehicle (0.2% DMSO, 0.8% ethanol) and plotted against compound concentration.

[3] = test system: C. albicans; test: Growth of reference and clinical strains in liquid media; format: cell-based; details: for EC50: Candida albicans
Protocol: (§1) Strains were presented in Table S8 (Supporting Information). Cells from a single colony were diluted in 0.85% NaCl before being counted using a Neubauer chamber. They were diluted to a final concentration of 6500 cells mL^−1 per well for all clinical strains of C. albicans and C. glabrata; 65 000 cells mL^−1 per well for C. auris; 13 500 cells mL^−1 per well for C. parapsilosis; 3375 cells mL^−1 per well for C. krusei and 1687.5 cells mL^−1 per well for C. tropicalis, in a sterile 96‐well plate. Cells were then grown in SC medium with or without chemical compounds at 30 °C with regular shaking. The significance of growth defects was assessed using Holm‐Sidak method by GraphPad Prism 10.

[4] = test system: C. glabrata; test: as above; format: cell-based; details: for Growth (%): C. glabrata; for EC50: Nakaseomyces glabratus
Protocol: as §1

[5] = test system: C. albicans expressing WT Bdf1; test: Galleria fungal infection model, WT strain; format: in vivo, Galleria mellonella; design: key to survival event of one larva (1 = death 0 = no death): 1 = death; 0 = no death
Protocol: (§2) Galleria mellonella larvae were purchased from Decathlon (La Tronche, France). They were selected in the late larval stages weighing between 300 and 400 mg. Groups of 10 larvae were injected into the right or left last pro‐leg with 10 µl of either PBS, C. albicans suspensions or antifungal drug using an insulin syringe (BDUltra‐Fine 0.3 ml). C. albicans suspensions of the WT and humanized Bdf1 strains were adjusted to 10^6 cells larva^−1. Antifungal drugs (anidulafungin 5 mg kg^−1 or I‐BET726 66 or 44 mg kg^−1) were injected once 30 min before fungal infection. An infected control group received the C. albicans inoculum and the solvent of the drug. A non‐infected control group received only PBS. After inoculation, larvae were placed in Petri dishes and incubated in the dark at 37 °C. The larvae were monitored for 5 days, and survival outcome was determined. For experiments performed at the lower (44 mg kg^−1) dose of IBET‐726, the difference in protection against infection with humanized versus WT C. albicans strains was more evident using the survival data at 40 h rather than at 100 h post‐infection. Larvae were considered dead when no response was observed following touch. All experiments were performed at least 3 times independently. The significance of survival was assessed by a Log‐rank (Mantel‐Cox) test in GraphPad Prism 10.

[6] = test system: C. albicans expressing humanized Bdf1; test: Galleria fungal infection model, humanized strain; format: in vivo, Galleria mellonella; design: key to survival event of one larva (1 = death 0 = no death): 1 = death; 0 = no death; details: for survival event of one larva (1 = death 0 = no death): Bdf1-hBD* strain
Protocol: as §2

## Cc1ccc(-c2nnc(C)c(NCc3ccc(C)o3)n2)cc1 [Compound 24c, 6‐methyl‐N‐((5‐methylfuran‐2‐yl)methyl)‐3‐(p‐tolyl)‐1,2,4‐triazin‐5‐amine]
[1]; 50 µM (I-BET726 1 µM), 20 h
  activity against PDR1 deletion strain versus WT/rescue: unaffected
[1]; PDR1 Rescue
  growth relative to Solvent = 100 (Figure S10B): 76.2272 and 100 and 72.1057
[1]; WT
  growth relative to Solvent = 100 (Figure S10B): 69.2689 and 72.9849 and 92.6631
[1]; pdr1∆
  growth relative to Solvent = 100 (Figure S10B): 52.2261 and 60.5623 and 93.6717
[2]
  cytotoxicity toward HeLa cells (MTT): modest cytotoxicity

## CC(=O)N1c2ccc(-c3ccc(C(=O)O)cc3)cc2C(Nc2ccc(Cl)cc2)CC1C (stereo not drawn) [I-BET726]
[3]; C. albicans, 1.5625 µM, Fig 5C
  Growth (%): 81% and 83% and 74%
[3]; C. albicans, 3.125 µM, Fig 5C
  Growth (%): 66% and 63% and 57%
[3]; C. albicans, 25 µM, Fig 5C
  Growth (%): 17% and 23% and 20%
[3]; C. albicans, 25 µM, Fig 5E
  Growth (%): 17% and 23% and 20%
[3]; ATCC90028, Table S5, C. albicans ATCC90028, WT, read-out: EC50 growth inhibition
  EC50: 4.25 ± 0.47 µM
[3]; Fig 5C, read-out: EC50 (μM), C. albicans
  EC50: 4.3 ± 0.5 µM
[3]; Table S5, C. albicans CagR, echinocandin-resistant, not characterized, read-out: EC50 growth inhibition
  EC50: 4.14 ± 0.48 µM
[3]; all eight azole- and echinocandin-resistant C. albicans clinical isolates, read-out: EC50 growth inhibition
  EC50: 5 to 10 µM
[3]; read-out: EC50 growth inhibition, Table S5, C. albicans AF1, echinocandin-resistant, Fks1-HS1 (S645P)
  EC50: 7.13 ± 1.48 µM
[3]; read-out: EC50 growth inhibition, Table S5, C. albicans AF2, echinocandin-resistant, Fks1-HS1 (S645P)
  EC50: 4.59 ± 0.95 µM
[3]; read-out: EC50 growth inhibition, Table S5, C. albicans AF3, echinocandin-resistant, Fks1-HS1 (S645P)
  EC50: 6.83 ± 0.26 µM
[3]; read-out: EC50 growth inhibition, Table S5, C. albicans CAAL74, fluconazole-resistant, Erg11 (Y132F, E266D, G448V, V488I)
  EC50: 5.87 ± 1.03 µM
[3]; read-out: EC50 growth inhibition, Table S5, C. albicans DSY292, azole-resistant, Erg11 (Y132H, G464S, R467K)
  EC50: 3.07 ± 0.26 µM
[3]; read-out: EC50 growth inhibition, Table S5, C. albicans DSY296, azole-resistant, Erg11 (G129A, G464S, G450E), Tac1 (N977D)
  EC50: 7.36 ± 0.76 µM
[3]; read-out: EC50 growth inhibition, Table S5, C. albicans DSY2323, azole-resistant, Erg11 (S405F), Tac1 (G980E)
  EC50: 11.5 ± 1.7 µM
[3]; strain AF1, 25 µM, Fig 5E
  Growth (%): 34% and 31% and 28%
[3]; strain AF2, 25 µM, Fig 5E
  Growth (%): 26% and 28% and 29%
[3]; strain AF3, 25 µM, Fig 5E
  Growth (%): 26% and 25% and 28%
[3]; strain CAAL74, 3.13 µM, Fig 5D
  Growth (%): 67% and 74% and 60%
[3]; strain CagR, 25 µM, Fig 5E
  Growth (%): 18% and 12%
[3]; strain DSY292, 0.78 µM, Fig 5D
  Growth (%): 84% and 81% and 86%
[3]; strain DSY292, 3.13 µM, Fig 5D
  Growth (%): 55% and 51%
[3]; strain DSY296, 0.78 µM, Fig 5D
  Growth (%): 97% and 88% and 92%
[3]; strain DSY296, 3.13 µM, Fig 5D
  Growth (%): 71% and 66% and 72%
[3]; strain DSY2323, 3.13 µM, Fig 5D
  Growth (%): 85% and 88% and 76%
[4]; 1.5625 µM, Fig 5C
  Growth (%): 91% and 84% and 88%
[4]; 3.125 µM, Fig 5C
  Growth (%): 88% and 77% and 93%
[4]; 25 µM, Fig 5C
  Growth (%): 62% and 60% and 75%
[4]; read-out: EC50 growth inhibition, Table S5, C. glabrata DSY565, azole-resistant, Pdr1 (L280F)
  EC50: 1.14 ± 0.62 µM
[4]; read-out: EC50 growth inhibition, Table S5, C. glabrata HAB1, azole-resistant, Pdr1 (T370I)
  EC50: 1.66 ± 0.56 µM
[4]; Fig 5C, read-out: EC50 (μM), C. glabrata
  EC50: 12 ± 5.6 µM
[4]; Table S5, C. glabrata ATCC2001, WT, read-out: EC50 growth inhibition
  EC50: 1.52 ± 0.44 µM
[5]; 44 mg kg^−1
  protection against infection: not significant
[5]; 66 mg kg^−1, injected once 30 min before infection
  survival of infected larvae: ≈ 100 h
[5]; Figure 6B, Time 10 hours
  survival event of one larva (1 = death 0 = no death): 1
[5]; Figure 6B, Time 35 hours
  survival event of one larva (1 = death 0 = no death): 1
[5]; Figure 6B, Time 50 hours
  survival event of one larva (1 = death 0 = no death): 1
[5]; Figure 6B, Time 73 hours
  survival event of one larva (1 = death 0 = no death): 1
[5]; Figure 6D, Time 17 hours
  survival event of one larva (1 = death 0 = no death): 1
[5]; Figure 6D, Time 23 hours
  survival event of one larva (1 = death 0 = no death): 1
[5]; Figure 6D, Time 41 hours
  survival event of one larva (1 = death 0 = no death): 1 and 0
[6]; 44 mg kg^−1, humanized strain, p = 0.0115, Mantel‐Cox test
  protection against infection: significant protection
[6]; 66 mg kg^−1, injected once 30 min before infection, humanized strain
  survival of infected larvae: ≈ 100 h
[6]; Figure 6C, Time 8 hours
  survival event of one larva (1 = death 0 = no death): 1
[6]; Figure 6C, Time 33 hours
  survival event of one larva (1 = death 0 = no death): 1
[6]; Figure 6C, Time 57 hours
  survival event of one larva (1 = death 0 = no death): 1
[6]; Figure 6C, Time 70 hours
  survival event of one larva (1 = death 0 = no death): 1
[6]; Figure 6D, Time 27 hours
  survival event of one larva (1 = death 0 = no death): 1
[6]; Figure 6D, Time 41 hours
  survival event of one larva (1 = death 0 = no death): 1 and 0
